In the supplement of paper PMC10627819:

Columns and labels:
S. pneumoniae D39V [1] = test: Bliss interaction score (quartile over a dose matrix) (fitness difference); higher = more antagonism (negative = synergy)
Procedure, shortened: (§1)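 The Bliss score subtracts expected fitness, the product of the single-drug fitness values, from observed fitness. Fitness is plate-normalised OD595 at entry into stationary phase, relative to the robust no-drug mean and capped at 1, with single-drug fitness inferred from combinations. Summaries are quartiles over technical, biological and donor/recipient replicates.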

S. aureus DSM 20231 [2] = test: as above
Procedure, shortened: as §1

B. subtilis 168 [3] = test: as above
Procedure, shortened: as §1

S. aureus Newman [4] = test: as above
Procedure, shortened: as §1

S. pneumoniae D39V [5] = test: fitness (endpoint OD595 vs no drug) (fraction); higher = more growth
Procedure, shortened: (§2)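 Fitness compares growth at the stationary-phase transition with the robust mean of no-drug control wells, as a ratio of optical densities. The ratio is capped at 1. Wells of 384-well plates held 30 µl, or 55 µl for S. pneumoniae, inoculated at OD595 0.01. Readings at OD595 every 30 min for 14 h at 37 °C were corrected against the first reading.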

S. aureus DSM 20231 [6] = test: as above
Procedure, shortened: as §2

B. subtilis 168 [7] = test: as above
Procedure, shortened: as §2

S. aureus Newman [8] = test: as above
Procedure, shortened: as §2
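Throughout, for Bliss interaction score (quartile over a dose matrix): first quartile when negative (synergy) and third quartile when positive (antagonism).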

CO/N=C(\C(=O)N[C@@H]1C(=O)N2C(C(=O)O)=C(COC(C)=O)CS[C@H]12)c1csc(N)n1 [Cefotaxime] + COc1ccc(C[C@H](N)C(=O)N[C@H]2[C@@H](O)[C@H](n3cnc4c(N(C)C)ncnc43)O[C@@H]2CO)cc1 [Puromycin]
Conditions	Bliss interaction score
B. subtilis 168 [3]	0.104
S. aureus DSM 20231 [2]	0.0471
S. aureus Newman [4]	0.0762
S. pneumoniae D39V [1]	0.11

fitness
Conditions	partner 0.39 µg/mL	partner 0.78 µg/mL	partner 1 µg/mL	partner 1.56 µg/mL	partner 2 µg/mL	partner 4 µg/mL
B. subtilis 168 [7], first compound 0.5 µg/mL	0.267	0.284	–	0.312	–	–
B. subtilis 168 [7], first compound 1 µg/mL	0.144	0.147	–	0.169	–	–
B. subtilis 168 [7], first compound 2 µg/mL	0.113	0.125	–	0.147	–	–
S. aureus DSM 20231 [6], first compound 0.078 µg/mL	0.748	0.774	–	0.833	–	–
S. aureus DSM 20231 [6], first compound 0.156 µg/mL	0.72	0.781	–	0.796	–	–
S. aureus DSM 20231 [6], first compound 0.312 µg/mL	0.644	0.689	–	0.712	–	–
S. aureus Newman [8], first compound 0.078 µg/mL	0.739	0.729	–	0.782	–	–
S. aureus Newman [8], first compound 0.156 µg/mL	0.633	0.698	–	0.702	–	–
S. aureus Newman [8], first compound 0.312 µg/mL	0.408	0.456	–	0.437	–	–
S. pneumoniae D39V [5], first compound 0.0018 µg/mL	–	–	0.973	–	≥ 1	0.885
S. pneumoniae D39V [5], first compound 0.0035 µg/mL	–	–	0.931	–	0.975	0.766
S. pneumoniae D39V [5], first compound 0.007 µg/mL	–	–	0.93	–	0.919	0.662

fitness, one replicate
Conditions	partner 0.39 µg/mL	partner 0.78 µg/mL	partner 1.56 µg/mL	partner 3.12 µg/mL	partner 6.24 µg/mL
B. subtilis 168 [7], first compound 0.00775 µg/mL	0.887	0.903	0.816	–	–
B. subtilis 168 [7], first compound 0.0155 µg/mL	0.71	0.726	0.668	–	–
B. subtilis 168 [7], first compound 0.031 µg/mL	0.558	0.574	0.616	–	–
S. aureus DSM 20231 [6], first compound 0.039 µg/mL	0.811	0.79	0.806	–	–
S. aureus DSM 20231 [6], first compound 0.078 µg/mL	–	–	–	0.895	0.653
S. aureus DSM 20231 [6], first compound 0.156 µg/mL	–	–	–	0.841	0.646
S. aureus DSM 20231 [6], first compound 0.312 µg/mL	–	–	–	0.808	0.417
S. aureus Newman [8], first compound 0.039 µg/mL	0.734	0.771	0.719	–	–
S. aureus Newman [8], first compound 0.625 µg/mL	0.0309	0.0612	0.0601	–	–
S. aureus Newman [8], first compound 1.25 µg/mL	0.0598	0.0843	0.0641	–	–
S. aureus Newman [8], first compound 2.5 µg/mL	0.0418	0.0601	0.0425	–	–

C[C@@H]1O[C@@H]1P(=O)(O)O [Fosfomycin] + Cn1nnc(-c2ccc(-c3ccc(N4C[C@H](CO)OC4=O)cc3F)cn2)n1 [Tedizolid]
Conditions	Bliss interaction score
B. subtilis 168 [3]	0.0967
S. aureus DSM 20231 [2]	0.069
S. aureus Newman [4]	-0.128
S. pneumoniae D39V [1]	0.0919

fitness
Conditions	partner 0.03125 µg/mL	partner 0.0625 µg/mL	partner 0.125 µg/mL	partner 0.25 µg/mL	partner 0.5 µg/mL
S. aureus DSM 20231 [6], first compound 0.781 µg/mL	–	0.693	0.497	0.091	–
S. aureus DSM 20231 [6], first compound 1.562 µg/mL	–	0.66	0.372	0.0334	–
S. aureus DSM 20231 [6], first compound 3.124 µg/mL	–	0.493	0.202	0.0354	–
S. aureus Newman [8], first compound 0.781 µg/mL	–	0.52	–	–	–
S. aureus Newman [8], first compound 1.562 µg/mL	–	–	–	0.101	–
S. aureus Newman [8], first compound 3.124 µg/mL	–	0.106	0.0423	0.0102	–
S. pneumoniae D39V [5], first compound 1.25 µg/mL	0.951	0.95	0.813	0.43	0.138
S. pneumoniae D39V [5], first compound 2.5 µg/mL	0.936	0.906	0.792	0.455	0.132
S. pneumoniae D39V [5], first compound 5 µg/mL	0.89	0.911	0.783	0.437	0.151
